# In ChEMBL document CHEMBL1128380, “Antimalarial activity of novel ring-contracted artemisinin derivatives” (1995):
# System: Mus musculus
# Experiment: Antimalarial activity was determined by Blood schizonticidal activity in mice (Mus musculus) infected with Plasmodium berghei K173 at 10 (mg/kgx5) subcutaneous dosage; Cured/treated = 0/5 on day 7
# Type: functional
row,Compound,Cured/treated
1,"CCOC(=O)C(=C[C@@]1(C)O[C@@H]2OC3(C)CCC4[C@H](C)CC[C@@H]1[C@]42OO3)C(=O)OCC (single isomer, unassigned)",0
2,"C[C@@H]1CC[C@@H]2[C@]34OOC(C)(CCC13)O[C@H]4O[C@]2(C)COC=O (single isomer, unassigned)",0

# System: Mus musculus
# Experiment: Antimalarial activity was determined by blood schizonticidal activity in mice (Mus musculus) infected with Plasmodium berghei K173 at 10 (mg/kgx5) subcutaneous dosage; Cured/treated = 0/6 on day 7
# Type: functional
row,Compound,Cured/treated
1,C[C@@H]1CC[C@@H]2[C@]34OO[C@@](C)(CCC13)O[C@H]4O[C@]2(C)COC(=O)C(=O)O (stereo not given in full),0
2,C[C@@H]1CC[C@@H]2[C@]34OO[C@@](C)(CCC13)O[C@H]4O[C@]2(C)C(=O)N1CCN(C)CC1 (stereo not given in full),0
3,C=CC/N=C(\S)OC[C@@]1(C)O[C@@H]2O[C@]3(C)CCC4[C@H](C)CC[C@@H]1[C@]42OO3 (stereo not given in full),0
4,CCOC(=O)c1cc(Cl)ccc1/N=C(/S)OC[C@@]1(C)O[C@@H]2O[C@]3(C)CCC4[C@H](C)CC[C@@H]1[C@]42OO3 (stereo not given in full),0
5,"C[C@@H]1CCC2[C@]34OOC(C)(CCC13)O[C@H]4O[C@]2(C)CO (single isomer, unassigned)",0
6,"C[C@@H]1CCC2[C@]34OOC(C)(CCC13)O[C@H]4O[C@]2(C)C(=O)O (single isomer, unassigned)",0
7,"C=CCOC(=O)[C@@]1(C)O[C@@H]2OC3(C)CCC4[C@H](C)CC[C@@H]1[C@]42OO3 (single isomer, unassigned)",0
8,"C[C@@H]1CC[C@@H]2[C@]34OOC(C)(CCC13)O[C@H]4O[C@]2(C)COS(=O)(=O)c1ccccc1 (single isomer, unassigned)",0
9,"C[C@@H]1CC[C@@H]2[C@]34OOC(C)(CCC13)O[C@H]4O[C@]2(C)C(=O)N1CCOCC1 (single isomer, unassigned)",0

# System: Mus musculus
# Experiment: Antimalarial activity was determined by Blood schizonticidal activity in mice (Mus musculus) infected with Plasmodium berghei K173 at 10 (mg/kgx5) subcutaneous dosage; Cured/treated = 0/4 on day 7
# Type: functional
row,Compound,Cured/treated
1,"CCOC(=O)[C@@]1(C)O[C@@H]2OC3(C)CCC4[C@H](C)CC[C@@H]1[C@]42OO3 (single isomer, unassigned)",0
2,"C[C@@H]1CC[C@@H]2[C@]34OOC(C)(CCC13)O[C@H]4O[C@]2(C)C(=O)OCCCCCCCCCl (single isomer, unassigned)",0

# System: Mus musculus
# Experiment: Antimalarial activity was determined by Blood schizonticidal activity in mice (Mus musculus) infected with Plasmodium berghei K173 at 20 (mg/kg x5) peroral dosage; Cured/treated = 0/6
# Type: functional
row,Compound,Cured/treated
1,CCN(CC)CCOC[C@@]1(C)O[C@@H]2O[C@]3(C)CCC4[C@H](C)CC[C@@H]1[C@]42OO3 (stereo not given in full),0
2,C[C@@H]1CC[C@@H]2[C@]34OO[C@@](C)(CCC13)O[C@H]4O[C@]2(C)CC(=O)ONc1ccc(Cl)cc1 (stereo not given in full),0

# System: Mus musculus
# Experiment: Antimalarial activity was determined by Blood schizonticidal activity in mice (Mus musculus) infected with Plasmodium berghei K173 at 5 (mg/kg x5) subcutaneous dosage; Cured/treated = 0/6 on day 7
# Type: functional
row,Compound,Cured/treated
1,CCN(CC)CCOC[C@@]1(C)O[C@@H]2O[C@]3(C)CCC4[C@H](C)CC[C@@H]1[C@]42OO3 (stereo not given in full),0
2,"C[C@@H]1CC[C@@H]2[C@]34OOC(C)(CCC13)O[C@H]4O[C@]2(C)COC/C=C/c1ccccc1 (single isomer, unassigned)",0
3,"C[C@@H]1CC[C@@H]2[C@]34OOC(C)(CCC13)O[C@H]4O[C@]2(C)C(=O)OCCBr (single isomer, unassigned)",0
4,"C[C@@H]1CC[C@@H]2[C@]34OOC(C)(CCC13)O[C@H]4O[C@]2(C)COC(=O)CCCCl (single isomer, unassigned)",0
5,"C[C@@H]1CC[C@@H]2[C@]34OOC(C)(CCC13)O[C@H]4O[C@]2(C)COS(C)(=O)=O (single isomer, unassigned)",0
6,"C[C@@H]1CC[C@@H]2[C@]34OOC(C)(CCC13)O[C@H]4O[C@]2(C)COC(=O)CCl (single isomer, unassigned)",0
7,"C[C@@H]1CC[C@@H]2[C@]34OOC(C)(CCC13)O[C@H]4O[C@]2(C)C(=O)OCCCCl (single isomer, unassigned)",0
8,"C[C@@H]1CC[C@@H]2[C@]34OOC(C)(CCC13)O[C@H]4O[C@]2(C)COC(=S)N1CCN(c2cccc(C(F)(F)F)c2)CC1 (single isomer, unassigned)",0

# System: Mus musculus
# Experiment: Antimalarial activity was determined by Blood schizonticidal activity in mice (Mus musculus) infected with Plasmodium berghei K173 at 5 (mg/kg x5) subcutaneous dosage; Cured/treated = 1/6 on day 7
# Type: functional
row,Compound,Cured/treated
1,C[C@@H]1CC[C@@H]2[C@]34OO[C@@](C)(CCC13)O[C@H]4O[C@]2(C)CC(=O)ONc1ccc(Cl)cc1 (stereo not given in full),1
2,"C[C@@H]1CC[C@@H]2[C@]34OOC(C)(CCC13)O[C@H]4O[C@]2(C)CC(=O)Oc1ccc([N+](=O)[O-])cc1 (single isomer, unassigned)",1
